Experimental data taken from patent US10857232B2, “Surfactant composition” (Enza Biotech AB, priority 2013, dated 2020).

How the values were obtained:
[1] = literature values [11-13]; cited from earlier work
[2] = target: insulin (Homo sapiens, UniProt P01308); assay: Inhibition of peptide and protein aggregation (insulin precipitation); type: physicochemical; settings: insulin 0.4 mg/ml, surfactant 1.4 mg/ml, pH 6.8 or 7.4, 25 and 40° C., 2-12 weeks
From the text: Inhibition of peptide and protein aggregation is crucial for the physical stability and safety, particularly for pharmaceutics for injection (injectabilia). Therefore, surfactants are normally applied as inhibitors of peptide and protein aggregation in such formulations. The ability, of a C16G8/14 mixture to inhibit peptide and protein aggregation in solution was investigated using insulin as model peptide.

Sequence of insulin (P01308 25-54 limits assumed, species assumed): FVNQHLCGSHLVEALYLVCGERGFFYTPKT
Sequence of insulin (P01308 90-110 limits assumed, species assumed): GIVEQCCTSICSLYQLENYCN

## CCCCCCCCCCCCCCO[C@@H]1O[C@H](CO)[C@@H](O[C@@H]2O[C@@H](CO)[C@H](O)[C@@H](O)[C@@H]2O)[C@H](O)[C@H]1O (stereo in doubt) [C14G2, tetradecylmaltoside]
[1]
  Krafft point: 32 °C
[2]
  Inhibition of insulin precipitation (visual inspection): unable to inhibit precipitation, even under non-accelerated conditions

## CCCCCCCCCCCCO[C@@H]1O[C@H](CO)[C@@H](O)[C@H](O)[C@H]1O [C12G1]
[1]
  Krafft point: 38 °C
